Reference: article doi:10.1101/2022.07.25.501481v1 (biorxiv, 2022)

What follows are compounds tested against T1, BT4193 (Bacteroides thetaiotaomicron, UniProt Q8A028) (assay: GP-AMC cleavage fluorescence, dose-response four-parameter fit).
T1 sequence (Q8A028 20-736): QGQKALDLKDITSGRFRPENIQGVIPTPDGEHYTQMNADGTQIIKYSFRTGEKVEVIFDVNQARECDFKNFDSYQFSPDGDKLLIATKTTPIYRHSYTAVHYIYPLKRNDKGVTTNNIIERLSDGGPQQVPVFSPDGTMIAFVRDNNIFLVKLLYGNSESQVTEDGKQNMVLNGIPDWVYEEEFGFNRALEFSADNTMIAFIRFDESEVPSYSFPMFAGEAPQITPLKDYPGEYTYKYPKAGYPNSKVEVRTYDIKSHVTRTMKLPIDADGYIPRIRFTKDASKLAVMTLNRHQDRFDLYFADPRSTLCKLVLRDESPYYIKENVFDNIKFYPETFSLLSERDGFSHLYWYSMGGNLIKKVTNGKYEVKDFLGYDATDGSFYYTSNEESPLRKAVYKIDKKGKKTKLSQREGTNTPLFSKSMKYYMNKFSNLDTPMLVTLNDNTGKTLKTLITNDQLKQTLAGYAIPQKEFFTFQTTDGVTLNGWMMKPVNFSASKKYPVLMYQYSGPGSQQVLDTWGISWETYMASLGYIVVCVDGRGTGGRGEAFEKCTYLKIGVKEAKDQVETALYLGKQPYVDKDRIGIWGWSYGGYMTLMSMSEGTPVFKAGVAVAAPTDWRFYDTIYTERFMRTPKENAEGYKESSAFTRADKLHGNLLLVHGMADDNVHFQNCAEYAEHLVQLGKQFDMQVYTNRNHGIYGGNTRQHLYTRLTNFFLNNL
Assay type: biochemical

| SMILES | IC50 [nM] |
| --- | --- |
| CC#CCn1c(N2CCC[C@@H](N)C2)nc2c1c(=O)n(Cc1nc(C)c3ccccc3n1)c(=O)n2C [linagliptin] | 445 ± 23 |
| N#C[C@@H]1C[C@@H]2C[C@@H]2N1C(=O)[C@@H](N)C12CC3CC(CC(O)(C3)C1)C2 [saxagliptin] | 10.3 ± 0.7 |
| N[C@@H](CC(=O)N1CCn2c(nnc2C(F)(F)F)C1)Cc1cc(F)c(F)cc1F [sitagliptin] | 2150 ± 162 |
| CC(C)[C@H](N)C(=O)N1CCC[C@H]1B(O)O [talabostat] | 12.4 ± 0.1 |
